These results are taken from patent US20250057990A1, “TISSUE-SPECIFIC MANGANESE BASED MRI CONTRAST AGENTS” (CASE WESTERN RESERVE UNIVERSITY, priority 2021, published 2025).

Series [1] relates to HepG2 hepatoma cells. Nature of the series: Cell uptake analysis (ICP-OES manganese content). In kind it is cell-based. The settings on record: 2 mM, 2 hours. As for the experimental part:
Cells were plated in a 6-well plate and incubated for 1 day to adhere and proliferate. Cells were then incubated for 2 hours with 2 mM Mn(EOB-PC2A), after which they were washed three times with DPBS, trypsonized, and pelleted. Cells were resuspended in 250 μL of 75% HNO3 for 48 hours for dissolution, after which 4.75 mL distilled water was added. The samples were centrifuged at 4,000 rpm for 30 minutes to pellet any non-dissolved components and the supernatant was collected. Manganese content in the cell solution was quantified by inductively coupled plasma optical emission spectroscopy (ICP-OES 730, Agilent Technologies, Santa Clara, CA, USA).

In series [2] the test system is C57BL6 mice. Description: T1-weighted axial fast spin-echo MRI of the liver. Conditions: 0.060 mmol/kg i.v. In kind it is in vivo. Here is the method:
(§1) All animal and imaging procedures were performed according to an approved Institutional Animal Care and Use Committee protocol. Male C57BL6 mice were purchased from Jackson Labs (Bar Harbor, ME, USA), housed in an animal facility.
(§2) All imaging experiments were performed using the MRS3000 3T small animal scanner. Mice (n=5) were anesthetized with 2% isoflurane, the tail vein was cannulized with a catheter, followed by transferal to the heated mouse bed of the MRI scanner. Mice were monitored with a respiration monitor while in the scanner. Before and at 15 and 30 minutes after administration of 60 μmol/kg Mn(EOB-PC2A), mice were imaged with a T1w axial fast spin-echo sequence with respiratory gating (TR=305 ms, TE=11 ms, FOV=40×40 mm, slice thickness=1 mm, number of slices=15, Nav=4, matrix=256×248) and a 3D FLASH sequence (TR=16 ms, […], T1=1000 ms, FOV=70×35 mm, slice thickness=35 mm, number of slices=1, Nav=3, matrix=256×128, flip angle=25°). Mice underwent an additional T1w axial spin-echo and 3D FLASH acquisitions at 24 hours post-injection.
(§3) MR images were exported in DICOM format, and processed and analyzed using FIJI software (https://imagej.net/software/fiji/). The signal-to-noise ratio [stissue/σnoise] and contrast-to-noise ratio [(stissue−smuscle)/σnoise] were calculated for the relevant tissues of each mouse at every time point. Subtraction images were produced for the 3D FLASH images by first dividing the pixel values of the images of each acquisition by the scaling factor assigned by the MRS software, and then subtracting the corresponding pre-contrast baseline images from the post-contrast images. Maximum intensity projections and 3-dimensional projections were produced for the raw and subtraction 3D FLASH images in FIJI using the “Z-project” function and the “3D-project” function with interpolation, respectively.

For series [3], the system named is DU145 prostate cancer cells. Nature of the series: Cell viability analysis (CCK8) in DU145 cells. The series is classed as cell-based. The settings on record: 48 hours, physiologically relevant concentrations. Here is the method: (§4) DU145 cells were purchased from American Type Culture Collection (ATCC, Manassas, VA, USA). HepG2 cells were kindly gifted by Dr. Zhenghong Lee at Case Western Reserve University (CWRU, Cleveland, OH, USA). All cell lines were cultured in Dulbecco's Modified Eagle's Medium (DMEM, Gibco, Amarillo, TX, USA) supplemented with 1% penicillin-streptomycin (Gibco) and 10% fetal bovine serum (Gibco) and incubated at 37° C. and 5% CO2.
(§5) Cells in culture were trypsonized and counted. In a 96-well plate, cells were seeded at 5,000 cells per well and incubated for 1 day to adhere and proliferate. Cells were then incubated with increasing concentrations of the liver-targeted MBCA for 48 hours. To measure cell viability, a CCK8 assay was performed according to the manufacturer's instructions (Dojindo Molecular Technologies, Inc., Kumamoto, JP). Percent cell viability was calculated as the signal intensity of the treated well divided by the signal intensity of the untreated control wells after accounting for background signal.

Series [4] is described as follows: Relaxivity measurements of Mn(EOB-PC2A) in saline containing 4.5% human serum albumin. The series is classed as physicochemical. The settings on record: 4.5% human serum albumin in saline, 1.5T, 37° C. Here is the method: (§6) Solutions of Mn(EOB-PC2A) were prepared in DPBS or saline containing 4.5% human serum albumin. The T1 and T2 relaxation times at 1.5T were measured using a Bruker Minispec Relaxometer ([…], 37° C.; Bruker, Billerica, MA, USA). The T1 relaxation times were also measured at 3T using an MRS3000 3T small animal scanner from MR solutions (MR Solutions, Surrey, UK) with a T1 mapping sequence (TR=10 ms, TE=4 ms, T1=50 ms, FOV=40×40 mm, slice thickness=2 mm, number of slices=1, Nav=1, matrix=256×128, flip angle=8°). The r1 and r2 relaxivities were calculated as the slope of the 1/T1 and 1/T2 vs. Mn concentration, respectively.

The test system of series [5] is C57BL6 mice. Description: 3D FLASH whole-body MRI. In kind it is in vivo. Also on record: key to Delta SNR: change in SNR, where SNR = s_tissue/σ_noise. The settings on record: for Delta SNR: 0.060 mmol/kg. As for the experimental part: as §1, §2, §3
Series [6] is described as follows: Relaxivity measurements of Mn(EOB-PC2A) in DPBS. In kind it is physicochemical. Here is the method:
as §6

Series [7] relates to HepG2 hepatoma cells. Nature of the series: Cell viability analysis (CCK8) in HepG2 cells. In kind it is cell-based. The settings on record: 48 hours, physiologically relevant concentrations. Here is the method: as §4, §5
The conditions of series [8]: from literature, cited from earlier work.
For series [9] the following is noted: from literature, cited from earlier work. This is another data set of the same source.
The conditions of series [10]: in vivo; cited from earlier work.
Where [11] appears, read: 15 minutes post-injection, relative to pre-contrast baseline.
[12] abbreviates: 30 minutes post-injection, relative to pre-contrast baseline.
Setting [13] is: 24 hours post-injection, relative to pre-contrast baseline.
Setting [14] is: blood plasma (human plasma), 1.5 T.

Several values for one entry are separate records, joined by “and”; a condition that tells them apart may be missing. Equal values may be shown once. Read-outs that look alike come from different tables or passages of the source. A value given as a limit tells only on which side of the number the result lay.

Regarding Mn(EOB-PC2A), the “intracellular concentration of Mn(II) relative to untreated cells” value in the series with HepG2 hepatoma cells [1] is reported as 17 times. Besides, the “normalized CNR of the liver” value in the series on C57BL6 mice [2] (setting [11]) was 3.20; in the series with C57BL6 mice [2] (setting [12]) it was 3.12. Also, the “normalized SNR of the liver” value in the series with C57BL6 mice [2] (setting [11]) was determined as 1.41; with C57BL6 mice [2] (setting [12]) it was 1.42. Besides, the “liver CNR” value with C57BL6 mice [2] (setting [13]) is reported as 1.16. Also, the “liver SNR” value in the series on C57BL6 mice [2] (setting [13]) turned out to be 0.86. Also, the “washout time after injection” value in the series with C57BL6 mice [2] (liver MR signal returns to pre-contrast baseline) was ≤ 24 h. In addition, the cytotoxicity entry (in series [3]; with HepG2 hepatoma cells [7]) was “no cytotoxicity” throughout. Moreover, in [4], the “r1 relaxivity Plasma/Serum” value was 5.85 mM⁻¹ s⁻¹ and 5.9 mM⁻¹ s⁻¹. Besides, the “Delta SNR” value with C57BL6 mice [5] (Bladder, 15 minutes post-injection) is listed as 157.07 ± 39.02; in the series on C57BL6 mice [5] (Bladder, 30 minutes post-injection) it was 199.96 ± 25.86; in the series on C57BL6 mice [5] (Bladder, 24 hours post-injection), −2.58 ± 5.42; in the series on C57BL6 mice [5] (Heart, 15 minutes post-injection), −0.04 ± 5.85; in the series with C57BL6 mice [5] (Heart, 30 minutes post-injection) it was −2.28 ± 7.11; in the series on C57BL6 mice [5] (Heart, 24 hours post-injection), 5.73 ± 16.25. Besides, the “Delta SNR” value with C57BL6 mice [5] (Kidney, 15 minutes post-injection) was 27.74 ± 7.66; with C57BL6 mice [5] (Kidney, 30 minutes post-injection) it was 21.33 ± 8.28; in the series with C57BL6 mice [5] (Kidney, 24 hours post-injection) it was 3.87 ± 5.62; in the series with C57BL6 mice [5] (Liver, 15 minutes post-injection), 51.48 ± 17.20; in the series on C57BL6 mice [5] (Liver, 30 minutes post-injection) it was 29.19 ± 14.28; with C57BL6 mice [5] (Liver, 24 hours post-injection), 1.36 ± 6.44. Moreover, the “Delta SNR” value with C57BL6 mice [5] (Lung, 15 minutes post-injection) is reported as −0.27 ± 0.44; with C57BL6 mice [5] (Lung, 30 minutes post-injection), −0.41 ± 0.31; with C57BL6 mice [5] (Lung, 24 hours post-injection) it was −0.43 ± 0.71; in the series on C57BL6 mice [5] (Muscle, 15 minutes post-injection), −3.63 ± 3.21; with C57BL6 mice [5] (Muscle, 30 minutes post-injection), −4.07 ± 5.11; in the series on C57BL6 mice [5] (Muscle, 24 hours post-injection), −6.62 ± 10.13. Besides, the biliary elimination result in the series on C57BL6 mice [5] (enhancement in gallbladder, particularly 30 minutes post-injection) is given as “eliminated via biliary excretion”. Moreover, the “renal elimination of unbound agent” value in the series with C57BL6 mice [5] (signal enhancement in kidneys and urinary bladder, 15 and 30 minutes post-injection) was “rapidly excreted via renal filtration”. Further, the “r1 relaxivity Water/DPBS” value in [6] (1.5T, 37° C.) is 2.83 mM⁻¹ s⁻¹ and 2.8 mM⁻¹ s⁻¹. This molecule also showed a r1 relaxivity in series [6] (3 T) of 2.61 mM⁻¹ s⁻¹.
In the case of `O=C([O-])CN1CCNCc2cccc(n2)CN(CC(=O)[O-])CC1.[Mn+2]` [Mn-3,6-PC2A], in [8] (water, 1.41 T), the “r1 relaxivity Water/DPBS” value is 2.4 mM⁻¹ s⁻¹. In addition, in series [9] (Seronorm, 1.41 T), the “r1 relaxivity Plasma/Serum” value was 3.0 mM⁻¹ s⁻¹.
As for `CCOc1ccc(C[C@@H](CN(CCN(CC(=O)[O-])CC(=O)[O-])CC(=O)[O-])N(CC(=O)[O-])CC(=O)[O-])cc1.[Gd+3].[H+].[H+]` [Gadoxetate, gadoxetate], in [8] (1.5 T), the “r1 relaxivity Water/DPBS” value is 4.7 mM⁻¹ s⁻¹. For the same molecule, the “time of peak enhancement after administration” value in series [10] is listed as “around 20 minutes”. Moreover, in series [9] (setting [14]), the “r1 relaxivity Plasma/Serum” value is 6.9 mM⁻¹ s⁻¹.
As for mangafodipir, the “r1 relaxivity Water/DPBS” value in series [8] (1.5 T) was 1.6 mM⁻¹ s⁻¹. The “r1 relaxivity Plasma/Serum” value in series [9] (setting [14]) is 3.6 mM⁻¹ s⁻¹.
Regarding `O=C([O-])CN(CCN(CC(=O)[O-])CC(=O)[O-])CCN(CC(=O)[O-])C(COCc1ccccc1)C(=O)[O-].[Gd+3].[H+].[H+]` (centres unmarked) [Gadobenate, gadobenate], the “r1 relaxivity Water/DPBS” value in series [8] (1.5 T) was 4.0 mM⁻¹ s⁻¹. For the same molecule, in series [9] (setting [14]), the “r1 relaxivity Plasma/Serum” value is 6.3 mM⁻¹ s⁻¹.
In the case of `O=C([O-])CN1CCNCCN(CC(=O)[O-])Cc2cccc(n2)C1.[Mn+2]` [Mn-3,9-PC2A], the “r1 relaxivity Water/DPBS” value in series [8] (water, 1.41 T) was 2.2 mM⁻¹ s⁻¹. Also, the “r1 relaxivity Plasma/Serum” value in series [9] (Seronorm, 1.41 T) is 3.3 mM⁻¹ s⁻¹.
